These results are taken from PMC4955148, “Identification and functional characterization of novel xylose transporters from the cell factories Aspergillus niger and Trichoderma reesei” (Biotechnology for Biofuels, 2016).

The subject of this assay is T1, AnXltB.
T1 construct: gene xltB; whole-cell uptake
As to the kind of experiment: […]-sugar initial uptake ([…] s) in yeast, Michaelis-Menten fit. The class given is cell-based, Aspergillus niger. Conditions: labelled compound; transport into intact cells; 100 mM PBS pH 6.5, 30 °C; read-out: Xylose initial uptake kinetics / K m.

As for `OC1OC[C@@H](O)[C@H](O)[C@H]1O` (stereo partly shown) [xylose], the Km stood at 15 ± 4.5 mM.
